Values quoted from earlier work as cited in patent US20110086070A1, “Orally disintegrating compositions of rhein or diacerein” (priority 2008, published 2011).
Structures can show the parent of a compound that is named as a salt.

What was measured:
[1] = oral route

| SMILES | solubility in water (water, disclosed in EP 243,968) | absorption by the digestive tract [1] | solubility in solvents (solvents such as water, alcohols, acetone, dichloromethane and chloroform) |
| --- | --- | --- | --- |
| CC(=O)Oc1cccc2c1C(=O)c1c(OC(C)=O)cc(C(=O)O)cc1C2=O [potassium salt of diacerein] | water-soluble | – | – |
| CC(=O)Oc1cccc2c1C(=O)c1c(OC(C)=O)cc(C(=O)O)cc1C2=O [Diacerein, 4,5-bis(acetyloxy)9,10-dihydro-4,5-dihydroxy-9,10-dioxo-2-anthracenecarboxylic acid] | – | cannot be completely absorbed | practically insoluble |
